From US11225460B2, “Pyrrolidineamide derivatives and uses thereof” (SUNSHINE LAKE PHARMA CO., LTD., priority 2019, dated 2022)

Assays:
[1] = target: T1, Human recombinant monoamine oxidase A (Homo sapiens, UniProt P21397); assay: Inhibitory effect on the activity of monoamine oxidase A; format: biochemical; details: human recombinant MAO-A, substrate p-tyramine hydrochloride
T1 construct: host or cells: Sf9 cells
T1 sequence (P21397 1-527): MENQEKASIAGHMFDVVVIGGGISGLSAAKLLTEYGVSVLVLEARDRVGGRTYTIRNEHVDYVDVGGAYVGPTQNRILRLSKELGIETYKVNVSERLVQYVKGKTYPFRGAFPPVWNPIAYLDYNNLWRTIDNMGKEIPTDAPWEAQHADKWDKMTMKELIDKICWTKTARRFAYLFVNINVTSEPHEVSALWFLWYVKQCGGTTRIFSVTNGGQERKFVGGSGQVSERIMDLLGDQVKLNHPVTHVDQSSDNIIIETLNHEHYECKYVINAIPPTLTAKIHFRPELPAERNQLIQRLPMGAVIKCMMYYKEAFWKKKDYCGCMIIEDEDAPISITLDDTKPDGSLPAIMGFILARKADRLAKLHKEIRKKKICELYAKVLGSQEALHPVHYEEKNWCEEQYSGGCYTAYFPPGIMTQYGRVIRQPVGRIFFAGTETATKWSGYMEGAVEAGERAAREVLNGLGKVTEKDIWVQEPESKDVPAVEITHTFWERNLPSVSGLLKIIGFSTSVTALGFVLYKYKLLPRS
Procedure: Human recombinant monoamine oxidase A expressed in Sf9 cells was used in the test system. In the experiment, firstly, the recombinant monoamine oxidase A was dissolved in the pre-configured HEPES buffer (0.8% NaCl, 0.037% KCl, 0.0135% Na2HPO4.2H2O, 0.1% Glucan, 0.5% HEPES, pH=7.0) at a concentration of 0.3 μg/μL. To each well of a 384-well plate was added 10 μL of monoamine oxidase A solution, and the test compound with different concentrations (the final concentration of DMSO was 1%) (10 gradient concentrations were 10 mM, 1 mM, 100 μM, 10 μM, 1 μM, 100 nM, 10 nM, 1 nM, 0.1 nM, 0.01 nM) were added into the wells, respectively. The standard reference compound was Clorgyline, the plate was incubated at room temperature for 15 min. Then, each well filled with […] (p-Tyramine hydrochloride, 1 mM) was incubated at room temperature for 60 min. Then 20 μL of fluorescein detection reagent was added to each well, which was fully blended and incubated at room temperature for 20 minutes to produce stable fluorescence signal. The fluorescence signal was read by fluorescein labeling instrument, and the value was expressed by relative light intensity (RLU). The inhibitory rate on enzyme activity was calculated according to the experimental results, the calculated formula: Inh %=(Max−Signal)/(Max−Min)*100, wherein Max was the detected value at the maximum concentration of the sample, Min was the detected value at the minimum concentration of the sample, and Signal was the detected value at the current concentration of the sample.
(§1) The standard curve was obtained through the series concentration by experimental test to calculate the IC50.

[2] = target: T2, Human recombinant monoamine oxidase B (Homo sapiens, UniProt P27338); assay: Inhibitory effect on the activity of monoamine oxidase B; format: biochemical; details: human recombinant MAO-B, substrate benzylamine hydrochloride
T2 construct: host or cells: Sf9 cells
T2 sequence (P27338 1-520): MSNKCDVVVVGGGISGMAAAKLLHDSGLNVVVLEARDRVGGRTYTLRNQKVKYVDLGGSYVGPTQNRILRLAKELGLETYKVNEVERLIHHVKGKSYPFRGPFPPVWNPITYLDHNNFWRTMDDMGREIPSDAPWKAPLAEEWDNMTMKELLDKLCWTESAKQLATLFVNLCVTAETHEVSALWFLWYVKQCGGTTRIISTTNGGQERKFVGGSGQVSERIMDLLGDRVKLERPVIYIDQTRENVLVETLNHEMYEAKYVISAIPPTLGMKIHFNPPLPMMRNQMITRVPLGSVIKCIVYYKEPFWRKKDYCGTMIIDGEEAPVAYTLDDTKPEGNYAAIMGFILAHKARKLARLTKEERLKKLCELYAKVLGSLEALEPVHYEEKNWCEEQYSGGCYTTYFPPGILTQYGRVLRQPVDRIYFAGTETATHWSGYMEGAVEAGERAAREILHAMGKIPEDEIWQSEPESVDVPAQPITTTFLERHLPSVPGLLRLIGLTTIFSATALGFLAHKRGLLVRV
Procedure: Human recombinant monoamine oxidase B expressed in Sf9 cells was used in the test system. In the experiment, firstly, the recombinant monoamine oxidase B was dissolved in the pre-configured HEPES buffer (0.8% NaCl, 0.037% KCl, 0.0135% Na2HPO4.2H2O, 0.1% Glucan, 0.5% HEPES, pH=7.0) at a concentration of 0.3 μg/μL. To each well of a 384-well plate was added 10 μL of monoamine oxidase B solution, and the test compound with different concentrations (the final concentration of DMSO was 1%) (10 gradient concentrations were 10 mM, 1 mM, 100 μM, 10 μM, 1 μM, 100 nM, 10 nM, 1 nM, 0.1 nM, 0.01 nM) were added into the wells respectively. The standard reference compound was R-(−)-Deprenyl, the plate was incubated at room temperature for 15 min. Then, each well filled with 10 μL substrate solution (Benzylamine hydrochloride, 1 mM) was incubated at room temperature for 60 min. Then 20 μL of fluorescein detection reagent was added to each well, which was fully blended and incubated at room temperature for 20 minutes to produce stable fluorescence signal. The fluorescence signal was read by fluorescein labeling instrument, and the value was expressed by relative light intensity (RLU). The inhibitory rate on enzyme activity was calculated according to the experimental results, the calculated formula: Inh %=(Max−Signal)/(Max−Min)*100, wherein Max was the detected value at the maximum concentration of the sample, Min was the detected value at the minimum concentration of the sample, and Signal was the detected value at the current concentration of the sample.
as §1

| SMILES | IC50 [1] | IC50 [2] |
| --- | --- | --- |
| NC(=O)[C@@H]1C[C@H](F)CN1Cc1ccc(OCc2cccc(F)c2)cc1 [Example 1, (2S,4S)-4-fluoro-1-(4-(3-fluorobenzyloxy)benzyl)pyrrolidine-2-formamide] | 46 µM | 19 nM |
| NC(=O)[C@@H]1C[C@H](F)CN1Cc1ccc(OCc2cccc(F)c2)cc1F [Example 3, (2S,4S)-4-fluoro-1-(2-fluoro-4-(3-fluorobenzyloxy)benzyl)pyrrolidine-2-formamide] | 29 µM | 30 nM |
